In US20210163404A1, “NOVEL UREA COMPOUNDS AND BIOISOSTERES THEREOF AND THEIR USE FOR TREATING INFLAMMATION AND INFLAMMATION-RELATED PATHOLOGIES” (UNIVERSITÉ LAVAL, priority 2017, published 2021):
pIC50: −log10 of the molar value.

Experiments:
[1] = test system: HDFn neonatal dermal fibroblast cell line; test: Antiproliferative activity (NCI procedure, sulforhodamine B), HDFn; format: cell-based, human; conditions: Homo sapiens, Fibroblast, 48 h; for GI50: Table 2; for pIC50: Table 6, unit inferred, tested 781 nM to 100 μM
Method in brief: (§1)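 Cells seeded in DMEM, grown 24 h at 37 °C, then exposed 48 h to serial dilutions from 100 μM to 781 nM (DMSO <0.5%). TCA fixation, sulforhodamine B staining, absorbance at 530-568 nm; growth inhibition relative to plates fixed on treatment day. At least two experiments in triplicate.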

IL-6 = IL-6 expression in HaCaT cells stimulated with IL-17A and TNFα (ELISA); format: cell-based, human; conditions: for Expression of IL-6, HaCaT: 10 μM solutions, HaCaT stimulated with IL-17A and TNFα, mean of five experiments in duplicate
Excerpt: The effect of compounds 3a-b, 4a-e, 5a-e and 6a-e on the expression of IL-6 was subsequently assessed using the HaCaT spontaneously transformed aneuploid immortal keratinocyte cell line, stimulated by the addition of IL-17A and TNFα in the culture medium (Table 1). Curcumin and ibuprofen were used as known IL-6 expression inhibitors. DMSO was used for solubilizing the drugs. […] Indeed, the inhibitory effect of these molecules was at least equivalent to that of curcumin [27] and ibuprofen, both recognized as anti-inflammatory drugs. The inhibitory effect of the substituted phenyl cycloalkylureas in accordance with an embodiment of the present disclosure on proinflammatory cytokines was also found at the mRNA level. Indeed, the mRNAs of the cytokines IL-6 and TNF-α as well as the mRNA of the chemokine IL-8 were lowered in TNF-α/IL-17A-stimulated HaCaT cells. Similar results were obtained in THP-1 cells stimulated with LPS where treatments with CHEU and 4e diminished the mRNA levels of the cytokines IL-1B, IL-6 and TNF-α in addition to the mRNA levels of the chemokine IL-8. It is surmised that the anti-inflammatory mechanism of action of the compounds of the present disclosure is likely mediated, at least in part, by modulating the phosphorylation state of the MAP kinase p38. […] Addition of a compound in accordance with an embodiment of the present disclosure, prior to stimulation with the aforementioned cytokines, decreases the level of p-p38 at 30-60 minutes post-stimulation. This diminution in p-p38 levels destabilizes the mRNAs of pro-inflammatory cytokines, non-limiting examples of which include TNF-α and IL-6. Moreover, it is surmised that the effect of the compounds of the present disclosure on p-p38 is potentially mediated by the activation of the phosphatase named DUSP1.
HaCaT cells (1×10^5) were suspended in DMEM culture media (500 μL) and incubated for 24 h in 24-well microtiter plates at 37° C. in a moisture-saturated atmosphere containing 5% CO2. Compounds were solubilized in DMSO and diluted in fresh DMEM. The compound (500 μL) was then added to the cell medium to obtain a final concentration of […] and the cells incubated over a period of 1 hour. In the meantime, IL-17α (200 ng/mL) and TNFα (20 ng/mL) (PeproTech, Rocky Hill, N.J.) were added to the drug solution in DMEM. Following the initial incubation of the cells, the culture medium was aspirated from each well and the IL-17α+ TNFα+ compound solution was added to each well for incubation (6 hours). The culture media was then removed and transferred to a clean tube (1.5 mL) at −80° C. until the ELISA test was performed. The presence of IL-6 in the cell media was determined using an IL-6 human Duoset ELISA kit (Fisher Scientific, Ottawa, On.) according to the manufacturer's instructions. Standards and samples were prepared and assessed in duplicate. Two separate replicates were performed for each sample. The absorbance was measured at 450 nm and 540 nm using a TECAN infinite M1000 plate reader.

[2] = test system: HaCaT keratinocyte cell line; test: Antiproliferative activity (NCI procedure, sulforhodamine B), HaCaT; format: cell-based, human; conditions: Homo sapiens, HaCaT, 48 h; for GI50: Table 2; for pIC50: Table 6, unit inferred, tested 781 nM to 100 μM
Method in brief: as §1

[3] = test system: HT-29 colon adenocarcinoma cells; test: Antiproliferative activity (NCI procedure, sulforhodamine B), HT-29; format: cell-based, human; conditions: Homo sapiens, HT-29, 48 h; for GI50: Table 2; for pIC50: Table 6, unit inferred, tested 781 nM to 100 μM
Method in brief: as §1

[4] = test system: A549 adenocarcinoma alveolar epithelial cancer cells; test: Antiproliferative activity (NCI procedure, sulforhodamine B), A549; format: cell-based, human; conditions: Homo sapiens, A549, 48 h; for GI50: Table 2; for pIC50: Table 6, unit inferred, tested 781 nM to 100 μM
Method in brief: as §1

HaCaT cells = test: Cell cycle analysis by flow cytometry; format: cell-based, human; conditions: for Cell cycle progression G0-G1 / Cell cycle progression G2-M / Cell cycle progression S: 10 μM, 24 h
Protocol: The effect of compounds 3a-b, 4e, 5b-c, 6a and 6e on cell cycle progression was subsequently assessed using a flow cytometer in accordance with established experimental protocols to evaluate any potential drug toxicity at specific phases of the cell cycle (Table 3).
HaCaT cells (2.5×10^5) were incubated with compounds 3a-b, 4e, 5b-c, 6a and 6e and curcumin (10 μM) over a period of 24 h. The cells were subsequently trypsinized, washed with PBS, resuspended in PBS (250 μL), fixed by the addition of ice-cold EtOH (750 μL) under agitation and stored at −20° C. until analysis. Prior to FACS analysis, cells were washed with PBS and resuspended in PBS (500 μL) containing 4′,6′-diamidino-2-phenylindole (DAPI) (2 μg/mL). The cell cycle was analyzed using an LSR II flow cytometer (BD Biosciences, Franklin Lakes, N.J.).

Row | Structure (SMILES) | GI50 [1] [µM] | pIC50 [1] | Expression of IL-6, HaCaT (IL-6) [pg/mL] | GI50 [2] [µM] | pIC50 [2] | GI50 [3] [µM] | pIC50 [3] | GI50 [4] [µM] | pIC50 [4] | melting point [°C] | inhibitory effect on IL-6 expression in HaCaT cells (IL-6; 10 μM, stimulated with IL-17A and TNFα, in words) | Cell cycle progression G0-G1 (HaCaT cells) | Cell cycle progression G2-M (HaCaT cells) | Cell cycle progression S (HaCaT cells) | effect on cell cycle progression (HaCaT cells; in words)
1 | O=C(Nc1ccc(I)cc1)NC1CC1 [Compound 20, 1-Cyclopropyl-3-(4-iodophenyl)urea] | 95 | 4.02 | 47.9 ± 4.5 | > 100 | ≤ 4.00 | 82 | 4.09 | > 100 | ≤ 4.00 |  |  |  |  |  | 
2 | O=C(Nc1ccc(I)cc1)NC1CCCC1 [Compound 24, 1-Cyclopentyl-3-(4-iodophenyl)urea] | > 100 | ≤ 4.00 | 65.1 ± 7.6 | > 100 | ≤ 4.00 | 9.7 | 5.01 | 62 | 4.21 | 188 to 191 |  |  |  |  | 
3 | CC(C)(C)c1ccc(NC(=O)NC2CC2)cc1 [Compound 27, 1-(4-(t-Butyl)phenyl)-3-cyclopropylurea] | 55 | 4.26 | 91.9 ± 7.6 | > 100 | ≤ 4.00 | 85 | 4.07 | > 100 | ≤ 4.00 | 138 to 139 |  |  |  |  | 
4 | CC(C)(C)c1ccc(NC(=O)NCC2CCC2)cc1 [Compound 30, 1-(4-(t-Butyl)phenyl)-3-(cyclobutylmethyl)urea] | 8.2 | 5.09 | 70.6 ± 7.6 | 35 | 4.46 | 21 | 4.68 | > 100 | ≤ 4.00 | 179 to 184 |  |  |  |  | 
5 | O=C(Nc1cccc(I)c1)NC1CC1 [Compound 36, 1-Cyclopropyl-3-(3-iodophenyl)urea] | 79 | 4.10 | 57.3 ± 4.4 | > 100 | ≤ 4.00 | > 100 | ≤ 4.00 | 84 | 4.08 | 153 to 154 |  |  |  |  | 
6 | O=C(NCC1CCC1)Nc1cccc(I)c1 [Compound 39, 1-(Cyclobutylmethyl)-3-(3-iodophenyl)urea] | 15 | 4.82 | 90.2 ± 11.1 | 31 | 4.51 | 25 | 4.60 | 25 | 4.60 | 138 to 140 |  |  |  |  | 
7 | O=C(Nc1cccc(I)c1)NC1CCCC1 [Compound 40, 1-Cyclopentyl-3-(3-iodophenyl)urea] | 23 | 4.64 | 89.8 ± 9.0 | 49 | 4.31 | 30 | 4.52 | 30 | 4.52 | 142 to 143 |  |  |  |  | 
8 | CC(C)(C)c1cccc(NC(=O)NC2CC2)c1 [Compound 44] | > 100 | ≤ 4.00 | 50.4 ± 2.6 | > 100 | ≤ 4.00 | > 100 | ≤ 4.00 | > 100 | ≤ 4.00 | 169 to 171 |  |  |  |  | 
9 | CC(C)(C)c1cccc(NC(=O)NC2CCCC2)c1 [Compound 48, 1-(3-(t-Butyl)phenyl)-3-cyclopentylurea] | 84 | 4.08 | 74.6 ± 6.7 | > 100 | ≤ 4.00 | 27 | 4.57 | 34 | 4.47 | 152 to 154 |  |  |  |  | 
10 | O=C(NCC1CCC1)Nc1ccc(C2CCCCC2)cc1 [Compound 57, 1-(Cyclobutylmethyl)-3-(4-cyclohexylphenyl)urea] | > 100 | ≤ 4.00 | 64.1 ± 5.4 | > 100 | ≤ 4.00 | > 100 | ≤ 4.00 | > 100 | ≤ 4.00 | 172 to 173 | significant inhibitory effect |  |  |  | 
11 | COc1cc(/C=C/C(=O)CC(=O)/C=C/c2ccc(O)c(OC)c2)ccc1O [Curcumin, reference compound] | 7.6 |  | 62.8 ± 12.0 | 7 |  | 4.2 |  | 9.9 |  |  |  | 14.8 | 77.1 | 8.1 | clearly arresting the cell cycle progression in the G2-M phase
12 | CC(C)Cc1ccc(C(C)C(=O)O)cc1 (stereo not drawn) [Ibuprofen, reference compound] | > 100 |  | 120.3 ± 18.6 | > 100 |  | > 100 |  | > 100 |  |  |  | 57.9 | 16.3 | 25.6 | 
